Drawing on ChEMBL document CHEMBL3352448, “Phytochemical analysis and antileukemic activity of polyphenolic constituents of Toona sinensis” (Bioorg Med Chem Lett, 2014), this text covers viability, Retention_time and Activity for twelve molecules.

Molecules are shown by their SMILES. Calls of active or inactive are those of the source. The calls are words filed in the database; no cut-off is given here.

The nature of data set [1]: (§1) Cytotoxicity against human HL60 cells assessed as cell survival at 50 uM after 72 hrs by CCK8 assay. The class given is functional. The note with it: HL-60, 72 h, read-out: Survival. (In general: Tetrazolium assays rely on reduction of a dye to a coloured formazan, in cell work by metabolically active cells.)
Data set [2] in a line: Retention time of the compound by UPLC analysis. The class given is physicochemical.
Data set [3] relates to HL-60. The data set is described as §1. The class given is functional.
Data set [4] concerns HL-60. Description: Induction of apoptosis in human HL60 cells assessed as nuclear fragmentation at 50 uM by Hoechst 33342 staining method. It is filed as functional, cell-based.
In data set [5] the test system is HL-60. Description: Induction of apoptosis in human HL60 cells assessed as chromatin condensation at 50 uM by Hoechst 33342 staining method. The class given is functional, cell-based.
For data set [6], the system named is HL-60. Briefly: Induction of apoptosis in human HL60 cells assessed as membrane blebbing at 50 uM by Hoechst 33342 staining method. The class given is functional, cell-based.
The subject of data set [7] is HL-60. Description: Induction of cell morphological changes in human HL60 cells assessed as increase in cellular size at 50 uM by Giemsa staining method. It is filed as functional, cell-based.
Data set [8] has as its system HL-60. Briefly: Induction of cell morphological changes in human HL60 cells assessed as increase in cytoplasmic content at 50 uM by Giemsa staining method. It is filed as functional, cell-based.
Data set [9] has as its system HL-60. Briefly: Induction of cell morphological changes in human HL60 cells assessed as increase in nuclear complexity at 50 uM by Giemsa staining method. It is filed as functional, cell-based.

Regarding `O=C(O[C@H]1[C@H](Oc2c(-c3ccc(O)cc3)oc3cc(O)cc(O)c3c2=O)O[C@H](CO)[C@@H](O)[C@@H]1O)c1cc(O)c(O)c(O)c1`, in data set [1], the viability at 50 µM was 48.3%. In [2], the Retention_time was found to be 27.02 min.
As to `CCOC(=O)c1cc(O)c(O)c(O)c1` [ETHYLGALLATE], the viability at 50 µM in data set [1] is 55.7%. The same molecule showed a Retention_time in data set [2] of 20.55 min.
For `O=c1c(O)c(-c2ccc(O)cc2)oc2cc(O)cc(O)c12`, the outcome in the data set with HL-60 [3] was Active.
As for `O=C(O)c1cc(O)c(O)c(O)c1` [GALLIC ACID], the viability at 50 µM in [1] was found to be 4.3%. Moreover, the Retention_time in data set [2] worked out at 5.04 min.
`Oc1cc(O)c2c(c1)O[C@H](c1ccc(O)c(O)c1)[C@@H](O)[C@@H]2c1c(O)cc(O)c2c1O[C@H](c1ccc(O)c(O)c1)[C@@H](O)C2`: the viability at 50 µM in [1] turned out to be 58.9%. The Retention_time in data set [2] is listed as 14.6 min.
On the same counts, the results for `C[C@@H]1O[C@@H](Oc2c(-c3ccc(O)cc3)oc3cc(O)cc(O)c3c2=O)[C@H](O)[C@H](O)[C@H]1O` [AFZELIN] are 45.8% and 25.42 min.
`Oc1cc(O)c2c(c1)O[C@H](c1ccc(O)c(O)c1)[C@H](O)C2` [(-)-EPICATECHIN] returned a Retention_time in [2] of 17.1 min.
For the molecule `O=c1c(O)c(-c2ccc(O)c(O)c2)oc2cc(O)cc(O)c12` [QUERCETIN], the viability at 50 µM in data set [1] was determined as 29.7%. In [2], this molecule had a Retention_time of 28.97 min.
Take `O=C(OC[C@H]1O[C@@H](Oc2c(-c3ccc(O)cc3)oc3cc(O)cc(O)c3c2=O)[C@H](OC(=O)c2cc(O)c(O)c(O)c2)[C@@H](O)[C@@H]1O)c1cc(O)c(O)c(O)c1`: the viability at 50 µM in [1] was found to be 24.6%. Moreover, the outcome with HL-60 [4], in the data set with HL-60 [5], in the data set with HL-60 [6], in the data set on HL-60 [7], in the data set on HL-60 [8] and with HL-60 [9] was Active. In data set [2], this molecule had a Retention_time of 23.37 min.
Regarding `O=c1c(O[C@@H]2O[C@H](CO)[C@@H](O)[C@H](O)[C@H]2O)c(-c2ccc(O)cc2)oc2cc(O)cc(O)c12`, in the data set on HL-60 [3], the outcome was Active.
As for `Oc1cc(O)c2c(c1)O[C@H](c1ccc(O)c(O)c1)[C@@H](O)C2` [CIANIDANOL], the viability at 50 µM in [1] stood at 47%. Moreover, the Retention_time in data set [2] was 13.56 min.
Take `C[C@@H]1O[C@@H](Oc2c(-c3ccc(O)c(O)c3)oc3cc(O)cc(O)c3c2=O)[C@H](O)[C@H](O)[C@H]1O` [QUERCITRIN]: in data set [1], the viability at 50 µM is 46.8%. This molecule also came in with a Retention_time in [2] of 23.37 min.
